Measurements from patent US20230017266A1, “Cyclooxygenase-2 Inhibition for the Treatment of SAA-high Asthma” (THE USA, AS REPRESENTED BY THE SECRETARY, DEPT. OF HEALTH …, priority 2019, published 2023).

System: NF-κB p65
Assay: Phosphorylation of NF-κB p65 serine 529 in monocytes stimulated with HDL+SAA1 (flow cytometry)
Type: cell-based, human
Settings: A438079 10 μM for 2 h, then HDL+SAA1 15 min; CD45+/CD14+/CD16− monocytes
Method: Phosphorylation of NF-κB p65. PBMCs isolated using Lymphoprep™ were resuspended in X-VIVO™ 15 serum-free hematopoietic cell medium (Lonza, Walkersville, Md.) and treated with the P2X7R antagonist, A438079 (10 ∝M), for 2 h prior to stimulation with HDL+SAA1 for 15 min^53. Subsequent cell processing was performed at 4° C. or on ice. Cells were washed with cold PBS, centrifuged at 300×g for 5 min, and reacted in a volume of 100 ∝l PBS for 15 min with the following antibodies; APC-Cy™7 mouse anti-human CD45 clone 2D1 (catalog #557833), FITC mouse anti-human CD14 clone M5E2 (catalog #555397), APC mouse anti-human CD16 clone B73.1 (catalog #561304), all form BD Biosciences (San Jose, Calif.) and cell viability dye (L34959, ThermoFisher Scientific, Frederick, Md.). […] Cells were washed with Phosflow Perm Buffer III and PBS, resuspended in PBS, and analyzed using a Fortessa analyzer equipped with 355, 407, 488, 532 and 640 nm LASER lines using FACS DIVA 8.0 software (BD Biosciences, San Jose, Calif.). […] Mean fluorescence intensity (MFI) was calculated and overlay histogram plots were generated to quantify phosphorylation of NF-κB p65 serine 529 among various treatment conditions.

Clc1cccc(-c2nnnn2Cc2cccnc2)c1Cl [A438079]
HDL+SAA1-mediated phosphorylation of p65 NF-κB: attenuated
